Reference: US12384797B2, “Thioeno[3,2-b] pyridin-7-amine compounds for treating familial dysautonomia” (PTC THERAPEUTICS, INC., priority 2019, dated 2025)

test system: Elongator complex protein 1 (ELP1, also referred to as IKBKAP); assay: IKBKAP-HTRF assay (IKBKAP protein in lysates of FD patient-derived fibroblasts); type: cell-based, human; details: 48 hours incubation, 7-point concentration curve
Procedure: The assay is used for the quantitative determination of Elongator complex protein 1 (ELP1, also referred to as IKBKAP) concentration in cell lysates using the HTRF® (Homogeneous Time-Resolved Fluorescence) technology. IKBKAP is detected in a sandwich HTRF assay by use of an anti-IKAP antibody labeled with a donor and an anti-IKAP antibody labeled with an acceptor.
Cells were thawed and incubated in DMEM-10% FBS for 72 hours. Cells were trypsinized, counted, and re-suspended to a concentration of 50,000 cells/mL in DMEM-10% FBS. A 199 μL aliquot of the cell suspensions were plated at 10,000 cells per well in a 96 well microtiter plate and incubated for 3 to 5 hours. […] Test compounds were serially diluted 3.16-fold in 100% DMSO to generate a 7-point concentration curve. A 1 μL aliquot of 200× compound solution was transferred to cell-containing wells, and cells were incubated for 48 hours in a cell culture incubator (37° C., 5% CO2, 100% relative humidity). Triplicate samples were set up for each compound concentration. After 48 hours, the supernatant was removed from the cells and 50 μL of the 1×LB4 lysis buffer, containing protease inhibitors, was added to the cells and incubated with shaking at room temperature for 1 hour. A 36 μL aliquot of this lysate was subsequently transferred to the 384-well plate containing 4 μL of the antibody solution (1:50 dilution of anti IKAP d2 and anti-IKAP K(9+8) in detection buffer). The 384-well plate was then centrifuged for 1 minute to bring the solutions to the bottom of the plate and incubated overnight at 4° C. Fluorescence for each well of the plate at 665 nm and 620 nm was measured was on the EnVision plate reader (Perkin Elmer). The ΔF for each sample is calculated by:
[formula] wherein Signal is the normalized fluorescence for each sample well and Blank is the average normalized average fluorescence for the Blank control wells.
The maximum fold increase (MFI) in IKBKAP protein abundance for compounds of Formula (I) or a form thereof relative to the vehicle control are provided in Table 1. MFI was calculated by dividing the ΔF value for each sample well by the sample ΔF for the vehicle control wells.
The EC2x for IKBKAP protein expression obtained from the 7-point concentration curve generated for each test compound according to the protocol in Biological Example 1 are also provided in Table 1. The term “EC2x for IKBKAP protein expression” is defined as the concentration of test compound that is effective in producing two times the amount of IKBKAP protein in a FD patient cell compared to the amount produced from the DMSO vehicle control.

SMILES | MFI (maximum fold increase in IKBKAP protein abundance relative to the vehicle control) | EC2x for IKBKAP protein expression (concentration producing two times the amount of IKBKAP protein vs DMSO vehicle control)
N#Cc1csc2c(NCc3cccs3)cc(Cl)nc12 [Compound 13, 5-chloro-7-{[(thiophen-2-yl)methyl]amino}thieno[3,2-b]pyridine-3-carbonitrile] | ***** (>4.9 is indicated by five stars (*****)) | –
N#Cc1csc2c(NCc3ccco3)cc(Cl)nc12 [Compound 14, 5-chloro-7-{[(furan-2-yl)methyl]amino}thieno[3,2-b]pyridine-3-carbonitrile] | ***** (>4.9 is indicated by five stars (*****)) | *** (between >0.02 μM and ≤0.5 μM is indicated by three stars (***))
N#Cc1cc(NCc2ccco2)c2scc(C#N)c2n1 [Compound 15, 7-{[(furan-2-yl)methyl]amino}thieno[3,2-b]pyridine-3,5-dicarbonitrile] | * (An MFI≤1.9 is indicated by one star (*)) | * (An EC2x>1 μM is indicated by one star (*))
C[C@H](N)Cc1cc2nc(Cl)cc(NCc3ccco3)c2s1 [Compound 16, 2-[(2S)-2-aminopropyl]-5-chloro-N-[(furan-2-yl)methyl]thieno[3,2-b]pyridin-7-amine] | **** (between >3.9 and ≤4.9 is indicated by four stars (****)) | ***** (≤0.005 μM is indicated by five stars (*****))
N[C@@H](CO)Cc1cc2nc(Cl)cc(NCc3ccco3)c2s1 [Compound 17, (2R)-2-amino-3-(5-chloro-7-{[(furan-2-yl)methyl]amino}thieno[3,2-b]pyridin-2-yl)propan-1-ol] | **** (between >3.9 and ≤4.9 is indicated by four stars (****)) | ***** (≤0.005 μM is indicated by five stars (*****))
Cc1c(C[C@H](C)N)sc2c(NCc3ccco3)cc(Cl)nc12 [Compound 18, 2-[(2S)-2-aminopropyl]-5-chloro-N-[(furan-2-yl)methyl]-3-methylthieno[3,2-b]pyridin-7-amine] | ***** (>4.9 is indicated by five stars (*****)) | ***** (≤0.005 μM is indicated by five stars (*****))
CC[C@H](N)Cc1sc2c(NCc3ccco3)cc(Cl)nc2c1C [Compound 19, 2-[(2S)-2-aminobutyl]-5-chloro-N-[(furan-2-yl)methyl]-3-methylthieno[3,2-b]pyridin-7-amine] | ***** (>4.9 is indicated by five stars (*****)) | ***** (≤0.005 μM is indicated by five stars (*****))
Cc1c(C[C@H](C)N)sc2c(NCc3ccco3)cc(C#N)nc12 [Compound 20, 2-[(2S)-2-aminopropyl]-7-{[(furan-2-yl)methyl]amino}-3-methylthieno[3,2-b]pyridine-5-carbonitrile] | ***** (>4.9 is indicated by five stars (*****)) | ***** (≤0.005 μM is indicated by five stars (*****))
Cc1c([C@H](C)N)sc2c(NCc3ccco3)cc(Cl)nc12 [Compound 21, 2-[(1S)-1-aminoethyl]-5-chloro-N-[(furan-2-yl)methyl]-3-methylthieno[3,2-b]pyridin-7-amine] | **** (between >3.9 and ≤4.9 is indicated by four stars (****)) | **** (between >0.005 μM and ≤0.02 μM is indicated by four stars (****))
Cc1c([C@@H](C)N)sc2c(NCc3ccco3)cc(Cl)nc12 [Compound 22, 2-[(1R)-1-aminoethyl]-5-chloro-N-[(furan-2-yl)methyl]-3-methylthieno[3,2-b]pyridin-7-amine] | ** (between >1.9 and ≤2.9 is indicated by two stars (**)) | * (An EC2x>1 μM is indicated by one star (*))
C[C@@H](N)c1cc2nc(Cl)cc(NCc3ccco3)c2s1 [Compound 23, 2-[(1R)-1-aminoethyl]-5-chloro-N-[(furan-2-yl)methyl]thieno[3,2-b]pyridin-7-amine] | ** (between >1.9 and ≤2.9 is indicated by two stars (**)) | * (An EC2x>1 μM is indicated by one star (*))
C[C@H](N)c1cc2nc(Cl)cc(NCc3ccco3)c2s1 [Compound 24, 2-[(1S)-1-aminoethyl]-5-chloro-N-[(furan-2-yl)methyl]thieno[3,2-b]pyridin-7-amine] | ** (between >1.9 and ≤2.9 is indicated by two stars (**)) | * (An EC2x>1 μM is indicated by one star (*))
CNCc1cc2nc(Cl)cc(NCc3ccco3)c2s1 [Compound 25, 5-chloro-N-[(furan-2-yl)methyl]-2-[(methylamino)methyl]thieno[3,2-b]pyridin-7-amine] | *** (between >2.9 and ≤3.9 is indicated by three stars (***)) | *** (between >0.02 μM and ≤0.5 μM is indicated by three stars (***))
CN[C@@H](C)c1sc2c(NCc3ccco3)cc(Cl)nc2c1C [Compound 26, 5-chloro-N-[(furan-2-yl)methyl]-3-methyl-2-[(1S)-1-(methylamino)ethyl]thieno[3,2-b]pyridin-7-amine] | **** (between >3.9 and ≤4.9 is indicated by four stars (****)) | *** (between >0.02 μM and ≤0.5 μM is indicated by three stars (***))
CNCc1sc2c(NCc3ccco3)cc(Cl)nc2c1C [Compound 27, 5-chloro-N-[(furan-2-yl)methyl]-3-methyl-2-[(methylamino)methyl]thieno[3,2-b]pyridin-7-amine] | **** (between >3.9 and ≤4.9 is indicated by four stars (****)) | *** (between >0.02 μM and ≤0.5 μM is indicated by three stars (***))
Cc1c(C[C@H](C)N)sc2c(NCc3cccs3)cc(Cl)nc12 [Compound 28, 2-[(2S)-2-aminopropyl]-5-chloro-3-methyl-N-[(thiophen-2-yl)methyl]thieno[3,2-b]pyridin-7-amine] | ***** (>4.9 is indicated by five stars (*****)) | ***** (≤0.005 μM is indicated by five stars (*****))
Cc1c(C[C@H](C)N)sc2c(NCc3ccccc3F)cc(Cl)nc12 [Compound 29, 2-[(2S)-2-aminopropyl]-5-chloro-N-[(2-fluorophenyl)methyl]-3-methylthieno[3,2-b]pyridin-7-amine] | ***** (>4.9 is indicated by five stars (*****)) | ***** (≤0.005 μM is indicated by five stars (*****))
Cc1c([C@@H](N)C(C)C)sc2c(NCc3ccco3)cc(Cl)nc12 [Compound 30, 2-[(1S)-1-amino-2-methylpropyl]-5-chloro-N-[(furan-2-yl)methyl]-3-methylthieno[3,2-b]pyridin-7-amine] | * (An MFI≤1.9 is indicated by one star (*)) | * (An EC2x>1 μM is indicated by one star (*))
